Results from patent US20040106545A1, “Compounds and methods for modulating cell adhesion” (priority 1996, published 2004).
Where “and” joins values, the source holds several entries; their conditions need not be identical. Identical values can stand only once. Entries after “also recorded” stand apart in the source; their conditions may differ.

What was measured:
[1] = tested on: human skin; assay: Human skin permeability, Franz Cell apparatus
Procedure: Another cell adhesion assay involves evaluating the effect of a modulating agent on permeability of adherent epithelial and/or endothelial cell layers. For example, the effect on permeability of human skin may be evaluated. Such skin may be derived from a natural source or may be synthetic. Human abdominal skin for use in such assays may generally be obtained from humans at autopsy within 24 hours of death. Briefly, a cyclic peptide and a test marker (e.g., the fluorescent markers Oregon Green™ and Rhodamine Green™ Dextran) may be dissolved in a sterile buffer, and the ability of the marker to penetrate through the skin and into a receptor fluid may be measured using a Franz Cell apparatus (Franz, Curr. Prob. Dermatol. 7:58-68, 1978; Franz, J. Invest. Dermatol. 64:190-195, 1975). In general, a modulating agent that enhances the permeability of human skin results in a statistically significant increase in the amount of marker in the receptor compartment after 6-48 hours in the presence of 500 μg/mL modulating agent. This assay evaluates the effect of a modulating agent on E-cadherin mediated cell adhesion.
Abdominal skin from humans at autopsy within 24 hours of death was used in these assays. The effect of N—Ac-CHAVC-NH2 (SEQ ID NO:10) and N—Ac-CHGVC-NH2 (SEQ ID NO:11), used at a concentration of 500 μg/ml or 2.5 mg/ml, on the penetration of two fluorescent markers, Oregon Green 488 (charge −1, MW 386 daltons) and Rhodamine Green 3000 Dextran (no charge, MW 3000 daltons) through human skin was then evaluated utilizing a Franz Cell apparatus (Franz, Curr. Prob. Dermatol. 7:58-68, 1978; Franz, J. Invest. Dermatol. 64:190-195, 1975). The peptides and markers were dissolved in sterile phosphate buffer, pH 7.2, and phosphate buffer was used as the receptor fluid. 150 μl of solution containing 0.2 mg Oregon Green and 1.0 mg Rhodamine Green was used to evaluate 500 μg/ml peptide; 200 μl of solution containing 0.05 mg Oregon Green and 1.250 mg Rhodamine Green was used to evaluate 2.5 mg/ml peptide. The solution was placed on top of the epidermal side of the skin, and the penetration of the markers through the skin was assessed using a fluorescent spectrophotometric method (in a Perkin Elmer 650-105 Fluorescence Spectrophotometer, and comparing the reading to a standard curve) at 6, 12, 24, 36, and 48 hours after the start of the experiment. The fluorescent units were converted to a concentration unit of microgram/5 ml (volume of the receiver compartment) using a standard curve and regression analysis equations. The curve was linear for the concentrations tested for both markers (r^2=1 for OrG and 0.997 for RhG). For each peptide and marker combination, the experiment was performed in triplicate.

[2] = tested on: A1N4 human breast epithelial cells; assay: Disruption of breast epithelial cell adhesion, E-cadherin staining; type: cell-based; settings: 500 μg/mL, 48 hours
Procedure: A1N4 human breast epithelial cells (kindly provided by Martha Stampfer, Lawrence Berkeley Laboratory, Berkeley, Calif.) were plated on glass coverslips and cultured in F12/DME containing 0.5% FCS and 10 ng/mL EGF for 24 hours. Fresh medium containing the cyclic peptides (final concentration 500 μg/mL media) N—Ac-CHAVC-NH2 (SEQ ID NO:10) or N—Ac-CHGVC-NH2 (SEQ ID NO:11) was then added. Following 24 hours of culture in the presence of the peptides, the medium was removed and fresh medium containing the peptides was added. The cells were fixed 24 hours later with cold methanol and stored in phosphate buffered saline (PBS).
Coverslips were blocked for 1 hour in 3% ovalbumin/PBS and incubated for a further 1 hour in the presence of 1 μg/mL mouse anti-E-cadherin antibody (Zymed, Gaithersburg, Md.). Primary and secondary antibodies were diluted in PBS containing 6% normal goat serum. Following incubation in the primary antibody, coverslips were washed 3 times for 5 minutes each in PBS and incubated for 1 hour with goat anti-mouse conjugated to fluorescein (Kiekegard and Perry, South San Francisco, Calif.) diluted 1:100. Following a further wash in PBS (3×5 minutes) coverslips were mounted in Vectashield (Vector Labs, Burlingame, Calif.) and viewed with a Zeiss infinity corrected microscope.

[3] = Cytotoxicity, MTT assay, HMVEC; type: cell-based; settings: human, HMVEC (human microvascular endothelial cells), read-out: HMVEC Cytotox (IC50)
Procedure: N—Ac-CHAVC-NH2 (SEQ ID NO:10) and the control peptide N—Ac-CHGVC-NH2 (SEQ ID NO:11) were evaluated for possible cytotoxic effects on human microvascular endothelial (HMVEC; Clonetics), human umbilical vein endothelial (HUVEC; ATCC #CRL-1730), IAFp2 (human fibroblast cell line; Institute Armand-Frapier, Montreal, Quebec), WI-38 (human fibroblast cell line; ATCC #CCL-75), MDA-MB231 (human breast cancer cell line; ATCC #HTB-26), and PC-3 (human prostate cancer cell line; ATCC #CRL-1435) cells utilizing the MTT assay (Plumb et al., Cancer Res. 49:4435-4440, 1989). Neither of the peptides was cytotoxic at concentrations up to and including 100 μM. Similarly, neither of the peptides was capable of inhibiting the proliferation of the above cell lines at concentrations up to 100 μM, as judged by ^3H-thymidine incorporation assays.

[4] = 500 μg/ml Peptide, t = 6 hours, Mean
[5] = 500 μg/ml Peptide, t = 6 hours, single replicates, listed as Sample#1
[6] = 500 μg/ml Peptide, t = 12 hours, Mean
[7] = 500 μg/ml Peptide, t = 12 hours, single replicates, listed as Sample#1
[8] = 500 μg/ml Peptide, t = 24 hours, Mean
[9] = 500 μg/ml Peptide, t = 24 hours, single replicates, listed as Sample#1
[10] = 500 μg/ml Peptide, t = 36 hours, Mean
[11] = 500 μg/ml Peptide, t = 36 hours, single replicates, listed as Sample#1
[12] = 500 μg/ml Peptide, t = 48 hours, Mean
[13] = 500 μg/ml Peptide, t = 48 hours, single replicates, listed as Sample#1
[14] = 2.5 mg/ml Peptide, t = 6 hours, Mean
[15] = 2.5 mg/ml Peptide, t = 6 hours, single replicates, listed as Sample#1
[16] = 2.5 mg/ml Peptide, t = 12 hours, Mean
[17] = 2.5 mg/ml Peptide, t = 12 hours, single replicates, listed as Sample#1
[18] = 2.5 mg/ml Peptide, t = 24 hours, Mean
[19] = 2.5 mg/ml Peptide, t = 24 hours, single replicates, listed as Sample#1
[20] = 2.5 mg/ml Peptide, t = 36 hours, Mean
[21] = 2.5 mg/ml Peptide, t = 36 hours, single replicates, listed as Sample#1
[22] = 2.5 mg/ml Peptide, t = 48 hours, Mean
[23] = 2.5 mg/ml Peptide, t = 48 hours, single replicates, listed as Sample#1

CC(=O)N[C@H]1CSSC[C@@H](C(N)=O)NC(=O)[C@H](C(C)C)NC(=O)[C@H](C)NC(=O)[C@H](Cc2c[nH]cn2)NC1=O [N—Ac—CHAVC—NH2, N-Ac-Cys-His-Ala-Val-Cys-NH2]
penetration of Oregon Green through the skin, compared to control peptide ([1]; 500 μg/ml): slightly increased the penetration of Oregon Green through the skin | penetration of Rhodamine Green through the skin, compared to control peptide ([1]; 500 μg/ml): significantly increased | Percutaneous absorption concentration for Dextran Rhodamine Green 3000 [1, 4]: 0.8 mg/5ml | Percutaneous absorption concentration for Oregon Green 488 [1, 4]: 0.084 mg/5ml | Percutaneous absorption concentration for Dextran Rhodamine Green 3000 [1, 5]: 0.4 mg/5ml and 0.8 mg/5ml and 1.2 mg/5ml | Percutaneous absorption concentration for Oregon Green 488 [1, 5]: 0.028 mg/5ml and 0.167 mg/5ml and 0.058 mg/5ml | Percutaneous absorption concentration for Dextran Rhodamine Green 3000 [1, 6]: 3.52 mg/5ml | Percutaneous absorption concentration for Oregon Green 488 [1, 6]: 0.225 mg/5ml | Percutaneous absorption concentration for Dextran Rhodamine Green 3000 [1, 7]: 3.0 mg/5ml and 2.0 mg/5ml and 5.556 mg/5ml | Percutaneous absorption concentration for Oregon Green 488 [1, 7]: 0.096 mg/5ml and 0.322 mg/5ml and 0.352 mg/5ml | Percutaneous absorption concentration for Dextran Rhodamine Green 3000 [1, 8]: 11.15 mg/5ml | Percutaneous absorption concentration for Oregon Green 488 [1, 8]: 0.780 mg/5ml | Percutaneous absorption concentration for Dextran Rhodamine Green 3000 [1, 9]: 16.174 mg/5ml and 4.074 mg/5ml and 13.158 mg/5ml | Percutaneous absorption concentration for Oregon Green 488 [1, 9]: 0.470 mg/5ml and 1.096 mg/5ml and 0.773 mg/5ml | Percutaneous absorption concentration for Dextran Rhodamine Green 3000 [1, 10]: 14.72 mg/5ml | Percutaneous absorption concentration for Oregon Green 488 [1, 10]: 1.00 mg/5ml | Percutaneous absorption concentration for Dextran Rhodamine Green 3000 [1, 11]: 21.044 mg/5ml and 5.556 mg/5ml and 17.565 mg/5ml | Percutaneous absorption concentration for Oregon Green 488 [1, 11]: 0.544 mg/5ml and 1.56 mg/5ml and 0.902 mg/5ml | Percutaneous absorption concentration for Dextran Rhodamine Green 3000 [1, 12]: 20.02 mg/5ml | Percutaneous absorption concentration for Oregon Green 488 [1, 12]: 1.120 mg/5ml | Percutaneous absorption concentration for Dextran Rhodamine Green 3000 [1, 13]: 25.747 mg/5ml and 6.481 mg/5ml and 27.826 mg/5ml | Percutaneous absorption concentration for Oregon Green 488 [1, 13]: 0.665 mg/5ml and 1.725 mg/5ml and 0.971 mg/5ml | penetration of Oregon Green through the skin, compared to control peptide ([1]; 2.5 mg/ml): increased the penetration of Oregon Green through the skin | penetration of Rhodamine Green through the skin, compared to control peptide ([1]; 2.5 mg/ml): significantly increased | Percutaneous absorption concentration for Dextran Rhodamine Green 3000 [1, 14]: 12.66 mg/5ml | Percutaneous absorption concentration for Oregon Green 488 [1, 14]: 0.14 mg/5ml | Percutaneous absorption concentration for Dextran Rhodamine Green 3000 [1, 15]: 24.52 mg/5ml and 2.4 mg/5ml and 11.05 mg/5ml | Percutaneous absorption concentration for Oregon Green 488 [1, 15]: 0.14 mg/5ml and 0.11 mg/5ml and 0.16 mg/5ml | Percutaneous absorption concentration for Dextran Rhodamine Green 3000 [1, 16]: 31.47 mg/5ml | Percutaneous absorption concentration for Oregon Green 488 [1, 16]: 0.40 mg/5ml | Percutaneous absorption concentration for Dextran Rhodamine Green 3000 [1, 17]: 45.35 mg/5ml and 25.22 mg/5ml and 23.83 mg/5ml | Percutaneous absorption concentration for Oregon Green 488 [1, 17]: 0.44 mg/5ml and 0.32 mg/5ml and 0.45 mg/5ml | Percutaneous absorption concentration for Dextran Rhodamine Green 3000 [1, 18]: 48.78 mg/5ml | Percutaneous absorption concentration for Oregon Green 488 [1, 18]: 0.54 mg/5ml | Percutaneous absorption concentration for Dextran Rhodamine Green 3000 [1, 19]: 66.28 mg/5ml and 35.22 mg/5ml and 44.85 mg/5ml | Percutaneous absorption concentration for Oregon Green 488 [1, 19]: 0.67 mg/5ml and 0.33 mg/5ml and 0.63 mg/5ml | Percutaneous absorption concentration for Dextran Rhodamine Green 3000 [1, 20]: 71.28 mg/5ml | Percutaneous absorption concentration for Oregon Green 488 [1, 20]: 0.88 mg/5ml | Percutaneous absorption concentration for Dextran Rhodamine Green 3000 [1, 21]: 120.0 mg/5ml and 42.36 mg/5ml and 51.50 mg/5ml | Percutaneous absorption concentration for Oregon Green 488 [1, 21]: 0.76 mg/5ml and 0.88 mg/5ml and 0.99 mg/5ml | Percutaneous absorption concentration for Dextran Rhodamine Green 3000 [1, 22]: 133.56 mg/5ml | Percutaneous absorption concentration for Oregon Green 488 [1, 22]: 0.82 mg/5ml | Percutaneous absorption concentration for Dextran Rhodamine Green 3000 [1, 23]: 146.79 mg/5ml and 47.00 mg/5ml and 60.1 mg/5ml | Percutaneous absorption concentration for Oregon Green 488 [1, 23]: 0.83 mg/5ml and 0.56 mg/5ml and 1.06 mg/5ml | E-cadherin staining and monolayer of A1N4 cells [2]: distribution of E-cadherin is non-contiguous; also recorded: reduced E-cadherin staining with a stitched appearance | IC50 [3]: > 100 µM
